The source of these data is publication PMC12661054, “The CIP2A-TOPBP1 axis facilitates mitotic DNA repair via MiDAS and MMEJ” (Nature Communications, 2025).

The structures appear in SMILES notation.

The test system of the experiment is eGFP-TOPBP1 interaction with SLX4, MUS81, ERCC1, BTR complex. Description: eGFP-TOPBP1 co-immunoprecipitation, mitotic HEK293TN cells. Type of experiment: cell-based, human. The following applies: eGFP-TOPBP1 Co-IP; RO-3306 7 µM, 30 min. On the procedure: GFP-Trap® Agarose Co-immunoprecipitation
HEK293TN cells were seeded to be ~25–30% confluence the next day in a 15 cm tissue culture dish. The following day cells were transfected using Lipofectamine 2000 transfection reagent (Thermo Fisher Scientific) with 24 µg of plasmid DNA encoding eGFP-SLX4 or eGFP-TOPBP1 expression cassettes following manufacturer’s instructions.
Forty eight hours post transfection cells were harvested after treatments as described, snap frozen on dry ice and stored at −80 °C. Cell pellets were removed from −80 storage and thawed on ice in 2.4 ml IP buffer 1 (100 mM NaCl, 0.2% Igepal CA-630, 1 mM MgCl2, 10% glycerol, 5 mM NaF, 50 mM Tris-HCl, pH 7.5), supplemented with EDTA Free […] protease inhibitor (Sigma Aldrich) and 25 U ml−1 Benzonase (Novagen). Cells were resuspended and rotated at 4 °C for 90 min. Benzonase was then inhibited by adjusted NaCl concentration to 200 mM and with the addition of 2 mM EDTA, followed by rotation for a further 30 min at 4 °C on a carousel. The cell suspension was then centrifuged at 16,000 x g for 25 min at 4 °C. In parallel, 20 µl agarose binding control bead (bab, Chromotek) slurry was washed with 500 µl IP buffer 2 (200 mM NaCl, 0.2% Igepal CA-630, 1 mM MgCl2, 10% glycerol, 5 mM NaF, 2 mM EDTA, 50 mM Tris-HCl, pH 7.5). The binding control beads were then centrifuged at 2500 x g for 2 min. The supernatant was then removed and the IP2 wash was repeated twice more. Cell lysates (soluble supernatant) were then collected added to the agarose binding control beads in 15 ml centrifuge tubes and subsequently rotated at 4 °C on carousel for 60 min. The agarose binding control beads were then pelleted by centrifugation at 2000 x g for 2 min, the supernatant was then transferred to a new tube. BCA assay was then carried out to determine the protein concentration of the pre-cleared cell lysate. […] The supernatant, now containing eluted material, was transferred to a new 1.5 ml microcentrifuge tube ready for downstream western blot analysis.

For the molecule `O=C1NC(=NCc2cccs2)S/C1=C\c1ccc2ncccc2c1` [CDK1i], the “interaction between TOPBP1 and MUS81 or ERCC1” value is “disrupted the interaction between TOPBP1 and MUS81 or ERCC1”; the “interaction between TOPBP1 and components of the BTR complex” value was “did not affect the interaction between TOPBP1 and components of the BTR complex”; the “interaction between eGFP-TOPBP1 and SLX4” value is “hindered the interaction between eGFP-TOPBP1 and SLX4”.
